# How the values were obtained:
# NOD mice = settings: results of refs (3) and (4); cited from earlier work
# anti-idiotypic T cells = experiment: Immunization followed by spleen T cell proliferation assay (anti-idiotypic response), NOD mice; type: in vivo; settings: NOD female mice, 12 weeks old, 100 µg per mouse subcutaneously in IPA; tested 2 or 5 weeks after treatment; C9VDJ peptide 5 µg/ml (Figure 9)
# From the text: The peptides are useful for the production of a medicine for vaccination against IDDM. • Figure 1. Determination by PCR of TCR, Vβ gene usage in the C9 clone. Lanes 1-19: the 19 different Vβ amplification reactions with the Cβ oligonucleotide primer. Lane s.m.: fx/Hae III size marker. The gel was hybridized with an internal Cβ oligonucleotide probe and therefore the size marker is printed. The two positive bands for Vβ2 and Vβ12 indicate the existence of these segments in the C9 clone. • Figure 2. The presence of sequences homologous to the C9 VDJ rearrangement determined by PCR in different T-cell lines using the specific C9 VDJ oligonucleotide primer. The first four lanes show the results of the NOD lines C9 (lane 1), C7 (2), N4 (3), and an anti-ovalbumin line (4). […] T cell responses to hep60 (idiotype) and to the C9 clone (anti-idiotype) were measured in naive female and male NOD mice. […] The proliferative response was measured'by adding 3H-thymidine to the culture for the last 16 h of a 72 h stimulation. The incorporated 3H-thymidine was measured on a β-counter and the stimulation index (SI) was calculated as cpm incorporation in the presence of antigen/cpm incorporation in the absence of antigen. […]
sequence,measurement,setting,value
VLGGGCALLRCIPALDSLTPANED (SEQ ID NO:5) [p277],prevention or reversal of diabetes by vaccination,NOD mice,could prevent (3) or even reverse diabetes
same,anti-C9 response (proliferation to C9VDJ peptide) after peptide treatment,anti-idiotypic T cells,induces anti-C9 response

# — patent publication EP0783524B1, “PEPTIDES AND PHARMACEUTICAL COMPOSITIONS COMPRISING THEM” (YEDA RESEARCH AND DEVELOPMENT CO. LTD., priority 1994, dated 2005)
